Reference: patent US20240300948A1, “Heterocyclic Compounds As Kinase Inhibitors” (Incyte Corporation, priority 2023, published 2024)

Assays:
[1] = target: T1, pseudo-kinase domain (JH2, amino-acids 536-812 with 3 surface mutations W659A, W777A, F794H) of human Wild Type JAK2 (Homo sapiens, UniProt O60674, F794H/W659A/W777A); assay: JAK2 LanthaScreen JH2-WT binding assay; conditions: 50 nM tracer, 1 hour at 25° C., read-out: JH2 BIND WT IC50
T1 construct: pseudo-kinase domain (JH2, amino-acids 536-812 with 3 surface mutations W659A, W777A, F794H); His (C); Avi (biotinylated) (C); purchased BPS Bioscience 79463; host or cells: baculovirus expression system
T1 sequence (O60674 536-812 W659A/W777A/F794H): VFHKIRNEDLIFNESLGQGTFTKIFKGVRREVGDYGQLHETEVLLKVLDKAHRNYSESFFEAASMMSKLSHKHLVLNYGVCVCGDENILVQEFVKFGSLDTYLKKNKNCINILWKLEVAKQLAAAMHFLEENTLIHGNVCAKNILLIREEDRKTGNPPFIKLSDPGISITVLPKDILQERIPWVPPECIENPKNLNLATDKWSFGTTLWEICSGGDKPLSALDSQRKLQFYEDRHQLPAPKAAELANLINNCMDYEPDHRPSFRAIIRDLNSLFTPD
Method: Example B. JAK2 LanthaScreen JH2-WT Binding Assay
(§1) JAK2 JH2-WT binding assay utilizes pseudo-kinase domain (JH2, amino-acids 536-812 with 3 surface mutations W659A, W777A, F794H) of human Wild Type JAK2 expressed as C-terminal His-Avi-tagged, biotinylated protein in a baculovirus expression system (BPS Bioscience, Catalog #79463). The assay was conducted in black 384-well polystyrene plates in a final reaction volume of 20 μL. JAK2 JH2-WT (0.145 nM) was incubated with compounds (100 nL serially diluted in DMSO) in the presence of 50 nM Fluorescent JAK2-JH2 Tracer (MedChem Express Catalog #HY-102055) and 0.25 nM Streptavidin-Tb cryptate (Cisbio Part #610SATLB) in assay buffer (50 mM Tris, pH=7.5, 10 mM MgCl2, 0.01% Brij-35, 0.1% BSA, 1 mM EGTA, 5% Glycerol and 5 mM DTT). Non-specific binding was accessed in the presence of 2 mM ATP. After incubation for 1 hour at 25° C., LanthaScreen signals were read on a PHERAstar FS plate reader (BMG LABTECH). Data was analyzed with IDBS XLfit and GraphPad Prism 5.0 software using a four parameter dose response curve to determine IC50 for each compound.

[2] = target: T2, catalytic domain (JH1, amino acids 826-1132) of human JAK2 (Homo sapiens, UniProt O60674); assay: JAK2 LanthaScreen JH1 binding assay; conditions: 50 nM tracer, 2 hours at 25° C., read-out: JH1 BIND IC50
T2 construct: catalytic domain (JH1, amino acids 826-1132) of human JAK2; FLAG (N); purchased Carna Biosciences 08-445-20N; host or cells: baculovirus expression system
T2 sequence (O60674 826-1132): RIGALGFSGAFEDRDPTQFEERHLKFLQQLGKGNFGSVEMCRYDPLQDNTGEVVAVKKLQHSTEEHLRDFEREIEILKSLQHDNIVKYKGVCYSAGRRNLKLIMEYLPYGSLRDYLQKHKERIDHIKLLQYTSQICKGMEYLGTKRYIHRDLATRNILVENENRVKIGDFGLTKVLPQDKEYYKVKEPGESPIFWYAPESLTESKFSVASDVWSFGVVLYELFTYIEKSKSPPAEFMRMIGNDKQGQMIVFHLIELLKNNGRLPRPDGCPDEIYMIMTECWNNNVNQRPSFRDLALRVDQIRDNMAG
Method: Example A. JAK2 LanthaScreen […] Binding Assay
JAK2 JH1 binding assay utilizes catalytic domain (JH1, amino acids 826-1132) of human JAK2 expressed as N-terminal FLAG-tagged, biotinylated protein in a baculovirus expression system (Carna Biosciences, Product #08-445-20N). The assay was conducted in black 384-well polystyrene plates in a final reaction volume of 20 μL. JAK2 JH1 (1.5 nM) was incubated with compounds (100 nL serially diluted in DMSO) in the presence of 50 nM fluorescent JAK2-JH1 tracer and 0.5 nM Streptavidin-Tb cryptate (Cisbio Part #610SATLB) in assay buffer (50 mM Tris, pH=7.5, 10 mM MgCl2, 0.01% Brij-35, 0.1% BSA, 1 mM EGTA, 5% Glycerol and 5 mM DTT). Non-specific binding was accessed in the presence of 2 mM ATP. After incubation for 2 hours at 25° C., LanthaScreen signals were read on a PHERAstar FS plate reader (BMG LABTECH). Data was analyzed with IDBS XLfit and GraphPad Prism 5.0 software using a four parameter dose response curve to determine IC50 for each compound.

[3] = target: T3, pseudo-kinase domain (JH2, amino-acids 536-812 with 3 surface mutations W659A, W777A, F794H) of human V617F mutant JAK2 (Homo sapiens, UniProt O60674, F794H/V617F/W659A/W777A); assay: JAK2 LanthaScreen JH2-V617F binding assay; conditions: 50 nM tracer, 1 hour at 25° C., read-out: JH2 BIND V617F IC50
T3 construct: pseudo-kinase domain (JH2, amino-acids 536-812 with 3 surface mutations W659A, W777A, F794H); His (C); Avi (biotinylated) (C); purchased BPS Bioscience 79498; host or cells: baculovirus expression system
T3 sequence (O60674 536-812 V617F/W659A/W777A/F794H): as the sequence (O60674 536-812 W659A/W777A/F794H) above, with V82F counted along it
Method: Example C. JAK2 LanthaScreen JH2-V617F Binding Assay
as §1, with “JH2-V617F” for “JH2-WT”, “V617F mutant” for “Wild Type”, “#79498).” for “#79463).”, “JH2-V617F (0.26” for “JH2-WT (0.145”

Structure (SMILES) | IC50 [1] [nM] | IC50 [2] [nM] | IC50 [3] [nM]
COC(=O)N[C@@H]1CC[C@@H](N2C(=O)NCc3cnc4[nH]c(-c5cnn(C)c5)c(-c5ccc6c(cnn6C)c5)c4c32)C1 [Example 29, Methyl ((1R,3R)-3-(9-(1-methyl-1H-indazol-5-yl)-8-(1-methyl-1H-pyrazol-4-yl)-2-oxo-2,3,4,7-tetrahydro-1H-pyrrolo[3′,2′:5,6]pyrido[4,3-d]pyrimidin-1-yl)cyclopentyl) carbamate] | ≤ 10 | > 1000 | 10 to 100
CC(=O)N[C@H]1C[C@H](N2C(=O)NCc3cnc4[nH]c(-c5cnn(C)c5)c(-c5ccc6c(cnn6C(C)C)c5)c4c32)C1 [Example 2, N-((1r,3r)-3-(9-(1-Isopropyl-1H-indazol-5-yl)-8-(1-methyl-1H-pyrazol-4-yl)-2-oxo-2,3,4,7-tetrahydro-1H-pyrrolo[3′,2′:5,6]pyrido[4,3-d]pyrimidin-1-yl)cyclobutyl) acetamide] | 10 to 100 | > 1000 | 10 to 100
COC(=O)N[C@H]1C[C@@H](N2C(=O)NCc3cnc4[nH]c(-c5cnn(C)c5)c(-c5ccc6c(cnn6C(C)C)c5)c4c32)C1 [Example 4, Methyl ((1s,3s)-3-(9-(1-isopropyl-1H-indazol-5-yl)-8-(1-methyl-1H-pyrazol-4-yl)-2-oxo-2,3,4,7-tetrahydro-1H-pyrrolo[3′,2′:5,6]pyrido[4,3-d]pyrimidin-1-yl)cyclobutyl) carbamate] | 10 to 100 | > 1000 | 10 to 100
COC(=O)N[C@@H]1CC[C@@H](N2C(=O)NCc3cnc4[nH]c(-c5cnn(C)c5)c(-c5ccc(OC6CCOC6)cc5)c4c32)C1 (mixture of isomers) [Example 27, Methyl ((1R,3R)-3-(8-(1-methyl-1H-pyrazol-4-yl)-2-oxo-9-(4-((tetrahydrofuran-3-yl)oxy)phenyl)-2,3,4,7-tetrahydro-1H-pyrrolo[3′,2′:5,6]pyrido[4,3-d]pyrimidin-1-yl)cyclopentyl)ca rbamate] | 10 to 100 | 100 to 500 | 10 to 100
CC(=O)N[C@H]1C[C@@H](N2C(=O)NCc3cnc4[nH]c(-c5cnn(C)c5)c(-c5ccc6c(cnn6C(C)C)c5)c4c32)C1 [Example 5, N-((1s,3s)-3-(9-(1-Isopropyl-1H-indazol-5-yl)-8-(1-methyl-1H-pyrazol-4-yl)-2-oxo-2,3,4,7-tetrahydro-1H-pyrrolo[3′,2′:5,6]pyrido[4,3-d]pyrimidin-1-yl)cyclobutyl) acetamide] | 10 to 100 | 500 to 1000 | 10 to 100
COC(=O)N[C@H]1C[C@H](N2C(=O)NC(C)c3cnc4[nH]c(-c5cnn(C)c5)c(-c5ccc6c(cnn6C(C)C)c5)c4c32)C1 (mixture of isomers) [Example 38, Methyl ((1r,3r)-3-(9-(1-isopropyl-1H-indazol-5-yl)-4-methyl-8-(1-methyl-1H-pyrazol-4-yl)-2-oxo-2,3,4,7-tetrahydro-1H-pyrrolo[3′,2′:5,6]pyrido[4,3-d]pyrimidin-1-yl)cyclobutyl)carbamate] | 10 to 100 | > 1000 | 10 to 100
COC(=O)N[C@@H]1CC[C@@H](N2C(=O)NCc3cnc4[nH]c(-c5cnn(C)c5)c(-c5ccc6c(cnn6CC6CC6)c5)c4c32)C1 [Example 23, Methyl ((1R,3R)-3-(9-(1-(cyclopropylmethyl)-1H-indazol-5-yl)-8-(1-methyl-1H-pyrazol-4-yl)-2-oxo-2,3,4,7-tetrahydro-1H-pyrrolo[3′,2′:5,6]pyrido[4,3-d]pyrimidin-1-yl)cyclopentyl) carbamate] | ≤ 10 | 100 to 500 | 10 to 100
COC(=O)N[C@@H]1CC[C@@H](n2c(=O)nc(N(C)C)c3cnc4[nH]c(-c5cnn(C)c5)c(-c5ccc6c(cnn6C(C)C)c5)c4c32)C1 [Example 43, Methyl ((1R,3R)-3-(4-(dimethylamino)-9-(1-isopropyl-1H-indazol-5-yl)-8-(1-methyl-1H-pyrazol-4-yl)-2-oxo-2,7-dihydro-1H-pyrrolo[3′,2′:5,6]pyrido[4,3-d]pyrimidin-1-yl)cyclopentyl)carbamate] | 100 to 500 | > 1000 | 100 to 500
